Test results from patent US20240148745A1, “COMPOUNDS FOR USE IN PROGRESSIVE MULTIPLE SCLEROSIS” (FONDAZIONE CENTRO SAN RAFFAELE, priority 2021, published 2024).

Experiments:
[1] = system: primary human A2B5+ pre-oligodendrocytes; experiment: Ensheathment by primary human A2B5+ oligodendrocyte lineage cells; assay type: cell-based; conditions: for percentage of ensheathed O4+ cells: human adult A2B5+ cells, 14 days
Protocol: FIG. 49. […] The experiments were conducted using primary human oligodendrocyte lineage cells obtained from surgically derived tissue specimens. Specimens were derived either from adults or pediatric age groups. […] Percentages of ensheathed O4+ cells were calculated by the total ensheathed O4+ cells out of total O4+ cells. HA-human adult, HP-human pediatric. *p<0.05.

[2] = system: iPSC-derived neurons (DIV45); conditions: human
Protocol: This protocol was modified from Yuchen Qi et al.^32 First, neural progenitors (NPCs) were generated from hiPSCs by dual-SMAD inhibition. Shortly, at day 0 iPSC colonies (confluent at 70-80%) were washed with PBS Dulbecco's w/o Calcium w/o Magnesium (Euroclone) and hiPSCs' maintenance medium (mTeSR™, StemCell Technologies) was replaced with neural induction medium composed by DMEM/F12 plus N2 medium (1×), B27 without RA supplement (0.5×) (Life Technology), added with SB431542 (10 μM) and LDN (500 nM). This medium was kept until day 4 (“induction”). At day 4, cells were splitted (1:3) with the same induction medium using Accutase®/Accumax™ (StemCell Technologies) dissociated solution. Entire medium was replaced daily up to days 14-16 until rosette formation was observed (“patterning”). At days 14-16, cells were detached by Accutase®/Accumax™ and re-plated on polyornitine/laminin/fibronectin coated MW96 or MW24 plates for terminal differentiation in Neurobasal medium supplemented with B27 (0.5×), BDNF (20 ng/ml), dbcAMP (500 μM), ascorbic acid (200 μM), PD0325901 (1 μM), SU5402 (5 μM), CHIR (3 μM), human recombinant insulin (5 μg/ml), supplemented with RI (Rock inhibitor) (1:3000) to reduce dissociation induced apoptosis. The half of differentiation medium was changed every 3-4 days, supplemented with 1 μg/ml laminin and DAPT (1-2 μM) until terminal maturation of neuronal population (MAP2+ cells). Cultures were characterized by immunocytochemistry and qRT-PCR and neuroprotective experiments were performed on days 30-40 of differentiation.
Evaluation of cytotoxicity of 160 selected compounds on iPSC-derived neurons (DIV45).

[3] = system: mouse cortical and striatal neurons; experiment: Morphological integrity evaluation, NMDA 20 μM; assay type: cell-based; conditions: 1 μM, 24 h pre-treatment, NMDA 20 μM 24 h
Protocol: Morphological integrity evaluation. Mouse cortical and striatal neurons (14 DIV) cultured in MW96 plates were exposed to 1 uM to 60 uM concentrations of NMDA and relationship between the NMDA dose and fiber length was evaluated. […] Each of the compound was tested in quadruplicate. The fiber length was evaluated by MAP2 staining (please see the method described earlier).
42 compounds were screened to evaluate the morphological integrity of cortical and striatal neurons upon chronic (24 h) NMDA exposure at concentration of 20 μM with compounds pre-treatment (24 h) in preventive regimen (FIG. 17).

mouse cortical neurons = experiment: Morphological integrity evaluation, NMDA 8 μM (MAP2 neurite length and branching); assay type: cell-based; conditions: 3 h pre-treatment, NMDA 8 μM 24 h; Z>0.5 criteria
Procedure, shortened: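 Mouse cortical neurons (14 DIV) pre-treated 3 h with compounds, then exposed 24 h to 8 μM NMDA; fixed, MAP2 immunostained with DAPI. Total neurite length and non-trunk branch number from 15 images/well, triplicates, converted to plate-based Z-scores; NAC positive, staurosporine and NMDA negative controls.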

[4] = system: human embryonic and fetal neural precursors (hufNPCs); experiment: hufNPC differentiation towards TUJ1+ neurons; assay type: cell-based; conditions: 1 μM, 7 days
Protocol: First, fresh human fetal brain tissues were mechanically dissociated, followed by enzymatic dissociation with Trypsin (LONZA (BE17-161E) 1:5) in growth medium for 5-10 min at 37° C., 5% O2 e 5% CO2, then washed with 10% Australian FBS in fresh medium and centrifuged 15 min at 200 g. Cells were plated in T25 flask in Neural stem cell growth medium (NeuroCult-XF Basal Medium (cat. #05760)+ NeuroCult-XF Proliferation supplement (cat. #05763) (for Human Neural Stem Cells) […] TECHNOLOGIES+human recombinant carrier-free EGF (cat. #1325 9510 00) and bFGF (cat. #1370 9505 00) (Provitro) at final concentration of 20 ng/ml) at 37° C., 5% O2 e 5% CO2. After 15-25 days, enzymatic (Accumax®, StarFish cat. #GMP-102470) dissociation of neurospheres or subconfluent adherent cells was performed and cells were re-plated at density (25000 cells/cm2) in NGM. […] Pro-differentiating properties of 160 compounds were evaluated by co-incubating freshly seeded in 96 well plate hufNPCs with 1 μM compounds for 7 days (each compound was tested in triplicate). […] After one week, cells were fixed and analyzed via immunocytochemistry. […] 15 images per well were acquired and analyzed by CellProfiler. Number of TUJ1+/DAPI cells was counted and compared to DMSO.
160 selected non-toxic compounds pro-differentiating properties were evaluated on human embryonic and fetal neural precursors (hufNPCs). […]

| SMILES | toxicity on dissociated cultures [1] | percentage of ensheathed O4+ cells [1] | viability compared to DMSO [2] | morphological integrity (neurite length) of cortical and striatal neurons [3] | further results |
| --- | --- | --- | --- | --- | --- |
| O=C(c1ccc(CN2CCOCC2)cc1)N1CCN(C2CC2)CC1 [Bavisant] | No evidence of toxicity | promote ensheathment of adult brain derived A2B5+ cells | – | – | – |
| CC(=O)N1CCN([C@H]2CCN(C(=O)N(C)[C@H](C)c3cc(C(F)(F)F)cc(C(F)(F)F)c3)[C@@H](c3ccc(F)cc3C)C2)CC1 [Casopitant] | No evidence of toxicity | promote ensheathment of adult brain derived A2B5+ cells | 65-80% | selected for confirmation | – |
| NCCCC[C@H](NC(=O)[C@@H](Cc1cc(Br)c(O)c(Br)c1)NC(=O)N1CCC(N2Cc3ccccc3NC2=O)CC1)C(=O)N1CCN(c2ccncc2)CC1 [Olcegepant] | – | – | – | selected for confirmation | preservation of neurite length and network integrity (branching) (mouse cortical neurons): preserved both neurite length and the network integrity (branching) |
| O=C(NOC[C@H](O)CO)c1ccc(F)c(F)c1Nc1ccc(I)cc1F [PD-0325901] | – | – | 65-80% | – | – |
| CC1(C)CCC(C)(C)c2cc(NC(=O)c3ccc(C(=O)O)cc3)ccc21 [Tamibarotene] | – | – | – | – | neuronal differentiation (TUJ1+/DAPI cells vs DMSO) [4]: significantly promoted neuronal differentiation compared to DMSO and heparin |
